Laboratory results: patent publication US20260217656A1, “Compounds Affecting KRAS” (UNIVERSITAT DE BARCELONA, priority 2022, published 2026)

Assays:
DLD-1 cells [1] = test: 3D on-top Matrigel assay; type: cell-based, human
Method: FIG. 6B is a series of images of cells. In total 2.5×10^4 DLD-1 cells were cultured on top of a thin basement membrane matrix (Matrigel) overlaid with a dilute solution of this basement membrane matrix (3D on-top Matrigel assay). At the time of seeding or 24 h later, cells were treated with P14B ([…] after seeding the colonies that had formed were analysed. Representative phase-contrast images are shown. All scale bars, […]
3D on-top Matrigel assay was performed as described in (Cabot et al., 2021).
Since both inhibition and sustained activation of RAS signaling are related to a decrease in cell survival, we analyzed the viability of the CRC cell lines DLD-1 (expressing oncogenic KRAS) and DLD-1-KO (oncogenic KRAS allele deleted), and the non-transformed cell line hTERT-RPE. […] At the IC50 of approximately 80 μM for DLD-1 cells, the viability of DLD-1-KO and of non-transformed cells was not affected (FIG. 6A). […] The effect of P14B in DLD-1 cells cultured in 3D conditions was also determined. […] Consequently, we conclude that P14B selectively reduces the viability of CRC cells expressing oncogenic KRAS, causing minor effects if these cells have been knocked out for oncogenic KRAS or in non-transformed cells. Thereby, P14B might be considered as an inducer of apoptosis in CRC with oncogenic KRAS.

DLD-1 cells [2] = test: Cleaved caspase-3 Western blot, DLD-1; type: cell-based, human; settings: DLD-1 cells treated 34 h or 48 h
Method: FIG. 6C is a blot showing extracts of DLD-1, DLD-1-KO and RPE cells at 34 h. and 48 h. DLD-1 cells treated with P14B for 36 h and 48 h were lysed and the expression of the apoptosis marker cleaved caspase-3 was analyzed by Western blot. Cells treated with the apoptosis inducer palmitic acid (PA) were used as a positive control.
Proteins were resolved by SDS-PAGE, transferred onto PVDF membranes (Immobilon-P, Millipore) and Western blot was performed as previously described (Cabot et al, Oncogene 2021). […]
Since both inhibition and sustained activation of RAS signaling are related to a decrease in cell survival, we analyzed the viability of the CRC cell lines DLD-1 (expressing oncogenic KRAS) and DLD-1-KO (oncogenic KRAS allele deleted), and the non-transformed cell line hTERT-RPE. […] The effect of P14B in DLD-1 cells cultured in 3D conditions was also determined. […]

With COc1ccc(C(c2c(C)n[nH]c2O)c2c(C)n[nH]c2O)cc1Oc1ccc([N+](=O)[O-])cc1 [Example P14B] the “size of the colonies in Matrigel” value (DLD-1 cells [1]; P14B added 24 h after seeding, 40 μM) was “clear reduction in the size of the colonies”, the “capacity to form colonies in Matrigel” value (DLD-1 cells [1]; P14B added when seeding the cells, 10 μM) was “drastic reduction in the capacity to form colonies” and the “cleaved caspase-3 expression” value (DLD-1 cells [2]) was “only detected in DLD-1-treated cells”.
